Read-outs that look alike come from different tables or passages of the source.
What was measured:
X-ray irradiated mice = assay: Radiation dermatitis murine model (thoracic X-ray irradiation); assay type: in vivo, C57BL/6 mice
Procedure: Animals were irradiated in the RS2000 small animal irradiator. The RS2000 provides a cone-shaped radiation field with irradiation at 12.39-40.50 cm from the X-ray source. For dose measurements, irradiation was performed with the following settings: 160 kVp, 25 mA, 90 s irradiation time and 0.3 mm Cu beam filtration. The approximate HVL provided by the manufacturer was 0.62 mm Cu. […] A custom lead shield was placed on the floor of the irradiator, with the mouse thoracic region ˜43.75 cm from the X-ray source. Dose measurements were conducted twice to account for set-up error and reproducibility. […] The dose rate was reported for each aperture position 1-4 as an absorbed dose rate to water (ADRW, Gy/min) and the two repeated measurements were averaged.
Mice (12-14 weeks of age) were anesthetized using inhaled anesthesia (isoflurane), and the fur was clipped on the dorsal side of the thoracic region. […] Animals were then anesthetized with injected anesthesia (150 mg/kg ketamine/18 mg/kg xylazine) and placed in Lucite jigs for exposure to 16.5 Gy thoracic irradiation in the RS2000 X-ray irradiator as previously described [19].
Animals were monitored daily for 85 days post-irradiation for both radiation dermatitis and combined injury models. Radiation dermatitis was separately scored for hair loss, erythema, scale, and ulceration. Scoring for erythema, scale and ulceration were previously described: 0=none; 1=minimal; 2=mild; 3=moderate; 4=marked [19]. Because all animals underwent fur clipping prior to irradiation and wounding, scoring for hair loss was determined as failure to regrow hair in the irradiated areas: 0=none; 1=minimal; 2=mild; 3=moderate; 4=marked. Animals were photographed for the measurement of wounds and for dermatitis scoring. […] Weight was measured as an indication of overall health.

[1] = tested on: X-ray irradiated and wounded mice; assay: Combined injury murine model (thoracic X-ray irradiation plus wound); assay type: in vivo, C57BL/6 mice
Source text: The C57BL/6 strain of mice has been utilized extensively for the study of radiation-induced skin injuries. We determined that 16 Gy is the minimal dosage for the induction of radiation burns in C57BL/6 mice that are not repaired within 45 days. Sham irradiated mice without wounds were used as controls for radiation dermatitis, and treated identically as irradiated mice. Wounded mice, without radiation, were used as controls for combined injury.
Animals were irradiated in the RS2000 small animal irradiator. The RS2000 provides a cone-shaped radiation field with irradiation at 12.39-40.50 cm from the X-ray source. For dose measurements, irradiation was performed with the following settings: 160 kVp, 25 mA, 90 s irradiation time and 0.3 mm Cu beam filtration. The approximate HVL provided by the manufacturer was 0.62 mm Cu. The University of Wisconsin Medical Radiation Research Center (UW MRRC) provided eight acrylic mouse phantoms with three (1×1×1 mm) Harshaw thermoluminenscence dosimeter (TLD)-100 microcubes (ThermoElectron Corp., Oakwood Village, OH) embedded in each phantom. The cylindrical phantom had dimensions of 27 mm in diameter (D)×65 mm in length (L) and was stabilized by a cylindrical insert 15 mm (D)×27 mm (L) with a 3 mm thick stand. A custom lead shield was placed on the floor of the irradiator, with the mouse thoracic region ˜43.75 cm from the X-ray source. Dose measurements were conducted twice to account for set-up error and reproducibility. TLDs were processed at UW MRRC using a national standard with an expanded uncertainty (k=2) of 5%. The dose rate was reported for each aperture position 1-4 as an absorbed dose rate to water (ADRW, Gy/min) and the two repeated measurements were averaged.
Mice (12-14 weeks of age) were anesthetized using inhaled anesthesia (isoflurane), and the fur was clipped on the dorsal side of the thoracic region. Two days after fur clipping, mice to be used for combined injury were given acetaminophen (150 mg/kg in 0.5 ml sterile saline) by gavage. Animals were then anesthetized with injected anesthesia (150 mg/kg ketamine/18 mg/kg xylazine) and placed in Lucite jigs for exposure to 16.5 Gy thoracic irradiation in the RS2000 X-ray irradiator as previously described. For combined injury, immediately following thoracic irradiation and while still under anesthesia, the area of the skin was scrubbed with betadine or chlorhexidine, followed by cleaning with an alcohol pad. A 9/16 inch diameter punch biopsy tool was used to create a 1 cm wound in the central dorsal thoracic region, roughly in the center of the field of radiation exposure. The panniculus carnosus muscle and overlying skin will be removed. The wound will be left open to air. The size of the wound approximates 15% of the total body skin surface.
TSN6 peptide (5 μg/day in 50 μl sterile saline) or hepatocyte growth factor (HGF; 3.3 μg/day in 50 μl sterile saline) or vehicle (sterile saline, 50 μl) were injected subcutaneously on days 2, 7 and 10 post-irradiation. Injections were made caudal, adjacent to the irradiated or irradiated/wounded area.
Animals were monitored daily for 85 days post-irradiation for both radiation dermatitis and combined injury models. Radiation dermatitis was separately scored for hair loss, erythema, scale, and ulceration. Scoring for erythema, scale and ulceration were previously described: 0=none; 1=minimal; 2=mild; 3=moderate; 4=marked. Because all animals underwent fur clipping prior to irradiation and wounding, scoring for hair loss was determined as failure to regrow hair in the irradiated areas: 0=none; 1=minimal; 2=mild; 3=moderate; 4=marked. Animals were photographed for the measurement of wounds and for dermatitis scoring. […] Weight was measured as an indication of overall health.

dermal papilla cells = assay: Alkaline phosphatase activity (marker of trichogenicity) in cultured cells; assay type: cell-based; details: TSN18, treated for four days, in vitro
Procedure: Dermal papilla cells regulate hair follicle development and growth, unfortunately, maintaining dermal papilla cells inductive capacity is difficult in culture, as evident by their gradual loss of alkaline phosphatase activity in culture^3. To test if TSN peptides can increase alkaline phosphatase activity keratinocytes and dermal papilla cells were plated at 4000 and 2000 cells/well respectively in a 96 well plate with six replicates and cultured overnight. The media was changed and appropriate treatment-vehicle, scrambled peptide or active peptide—was added to the well. The media were changed with fresh media containing peptides 2 days after initial treatment, and the total culture period was 4 days, following which alkaline phosphatase activity was measured (FIG. 1). […]
Alkaline Phosphatase activity: Keratinocytes and dermal papilla cells were plated at 4000 and 2000 cells/well respectively in a 96 well plate with six replicates and cultured overnight. […] Alkaline phosphatase activity was measured according to manufacturer's instructions using Alkaline Phosphatase Yellow (pNPP) Liquid Substrate System for ELISA (Sigma Aldrich).
Materials and Methods: Cultured dermal papilla (DP) cells, specialized skin fibroblasts isolated from the base of hair follicles, were treated with TSN18 for four days. […] Graft sizes were measured by tracing the grafts and area determined using ImageJ (NIH) software.

[2] = tested on: dermal papilla (DP) cells; assay: Cell viability assay (MTT); assay type: cell-based; details: treated for four days, in vitro
Procedure: Cell viability assay: Keratinocytes and dermal papilla cells were plated at 4000 and 2000 cells/well respectively in a 96 well plate with six replicates and cultured overnight. The media was changed and appropriate treatment-vehicle, scrambled peptide or active peptide—was added to the well. The media were changed with fresh media containing peptides 2 days after initial treatment, and the total culture period was 4 days. The cell viability was then measured using CellTiter […] Non-Radioactive Cell Proliferation Assay (MTT) (Promega Corporation). Briefly, 15 μL of dye solution was added to each well and incubated for 4 h at 37° C. and 5% CO2. Next 100 μL of stop solution was added to the mixture, incubated for an hour and absorbance was recorded at 570 nm using a plate reader.
Materials and Methods: Cultured dermal papilla (DP) cells, specialized skin fibroblasts isolated from the base of hair follicles, were treated with TSN18 for four days. Cell viability was measured using the CellTiter 96 Non-radioactive cell proliferation assay (MTT) kit. Alkaline phosphatase activity, a marker of trichogenicity was measured with the alkaline phosphatase yellow (pNPP) liquid substrate system for ELISA. […] The bandages were changed at two weeks and removed after four weeks and the grafts were monitored through 10 weeks. […]

grafted DECs = assay: Graft survival and size of TSN18-treated DECs grafted on nude mice; assay type: in vivo, Cr: NIH(S)-nu/nu mice
Procedure: Materials and Methods: Cultured dermal papilla (DP) cells, specialized skin fibroblasts isolated from the base of hair follicles, were treated with TSN18 for four days. Cell viability was measured using the CellTiter 96 Non-radioactive cell proliferation assay (MTT) kit. Alkaline phosphatase activity, a marker of trichogenicity was measured with the alkaline phosphatase yellow (pNPP) liquid substrate system for ELISA. A pilot study was performed to see whether incorporation of TSN18 active peptide in DECs improves graft survival or size. For the construction of DECs, human DP cells suspended in 1 mg/mL rat tail type I collagen were plated on inserts placed in six-well plates and incubated in media containing TSN18 active or scrambled peptide for 3 days. Subsequently, human neonatal foreskin keratinocytes were layered on top and the media changed to Epi medium containing TSN18 active or scrambled peptide for 2 days. […] The bandages were changed at two weeks and removed after four weeks and the grafts were monitored through 10 weeks. […] At the end of the experiment, the histological appearance of grafts was evaluated for the presence of a human stratified squamous epithelium and the presence or absence of human cells was assessed by staining for human leukocyte antigen. Graft sizes were measured by tracing the grafts and area determined using ImageJ (NIH) software.

mice with CI = assay: Combined injury (CI) pilot study with active or scrambled peptide; assay type: in vivo, C57BL/6 mouse; details: s.c. near wound on days 2, 7, 10 post-irradiation; 5 mice per group (FIG. 15)
Source text: Mice were exposed to thoracic X-ray irradiation without excision wounding to induce CRI, and with an experimental excision wound within the irradiated region to induce CI. Animals were scored by researchers blinded to the treatment groups. Photographic documentation was made for each experiment. We evaluated the rate of wound healing from days 1-30 post-irradiation, and the severity of dermatitis was scored using four variable measures (erythema, scale, hair loss, and ulceration) in the mice from 14 days post-irradiation (dpi) until necropsy. Specific cellular and protein expression changes were determined using western blotting and immunohistochemistry (IHC). To evaluate the efficacy of bioactive peptides, mice with CI were treated with active peptides or scrambled peptides (negative control) by subcutaneous injection near the wound site on days 2, 7, and 10 post-irradiation. Additionally, vehicle control CI animals received saline (vehicle for the peptides) injections in the same volumes on the same days.

[3] = tested on: wound re-epithelization and closure; details: in vitro, previous studies; cited from earlier work
[4] = tested on: wound re-epithelization and closure; details: in BALB/c mice, previous studies; cited from earlier work
[5] = 16.5 Gy, s.c. days 2, 7, 10 post-irradiation, TSN6 5 μg/day, HGF 3.3 μg/day, vs vehicle
[6] = 16.5 Gy plus wound, s.c. days 2, 7, 10, TSN6 5 μg/day, HGF 3.3 μg/day

HGF: Hepatocyte growth factor, a pluripotent factor; a known adult tissue repair factor
ulceration score (X-ray irradiated mice; 16.5 Gy, s.c. days 2, 7, 10 post-irradiation, HGF 3.3 μg/day, vs vehicle): not markedly different
erythema score (X-ray irradiated mice; [5]): not markedly different
hair loss score (X-ray irradiated mice; [5]): not markedly different
radiation dermatitis (overall measures) (X-ray irradiated mice; [5]): did not improve any measures
scale score (X-ray irradiated mice; [5]): not markedly different
adipose layer in H&E histological sections (X-ray irradiated mice; skin 83 days post-irradiation, radiation alone): some improve preservation of the adipose layer
ulceration score ([1]; 16.5 Gy plus wound, HGF 3.3 μg/day s.c. days 2, 7, 10): somewhat exacerbate ulceration
characteristics of radiation dermatitis (hair loss, scale, erythema, ulceration) including combined score [1, 6]: did not improve any measure
rate of wound closure / wound repair [1, 6]: did not accelerate wound repair
adipose layer in histological sections ([1]; combined injury, 83 days post-irradiation): some improvement in the adipose layer in some animals

QPQPLPSPGVGGKN [TSN18, 14 aa combination of non-helical Collagen (VI) Alpha-3 chain regions]
alkaline phosphatase activity of DP cells (dermal papilla cells): did not affect
cell viability of DP cells [2]: did not affect
average graft size (grafted DECs; at 10 weeks, peptide 10 μM, ImageJ): 16.4±5.4 mm2
mice that retained the graft until 10 weeks (grafted DECs; peptide 10 μM in DECs, n=5 per group): four out of five
decrease of severity of aggregate radiation dermatitis scores (mice with CI): ~50%
wound re-epithelization and closure [3]: promoted wound re-epithelization and closure
wound re-epithelization and closure [4]: promoted wound re-epithelization and closure
